Consider eight molecules from patent publication US20100240537A1, “Substituted 6-(alkylbenzylamino)purine derivatives for use as cytokinin receptor antagonists and preparations containing these derivatives” (priority 2007, published 2010).

pEC50, pIC50: −log10 of the molar value. Where two headings read alike, the source gives them in different places.

The target of assay [1] is T1, CRE1/AHK4 (Arabidopsis thaliana, UniProt Q9C5U0).
T1 construct: expressed in transfected cells; host or cells: Escherichia coli KMI001, plasmid pIN-III-AHK4
The assay is described as follows: Activation of cytokinin receptor CRE1/AHK4 in E. coli KMI001 (β-galactosidase reporter). The conditions noted are these: E. coli KMI001 pIN-III-AHK4, 17 h incubation, n.i. means without interaction. It is filed as cell-based. As to the method: (§1) Escherichia coli strains KMI001 harbouring the plasmid pIN-III-AHK4 or pSTV28-AHK3 were grown overnight at 25° C. in M9 media enriched with 0.1% casamino acids to OD600˜1. The preculture was diluted 1:600 in 1 ml M9 medium containing 0.1% casamino acids and 1 μl stock solution of either the tested compound (10^−7 M−5×10^−5 M) or solvent control (DMSO, ethanol, methanol) were added. The cultures were further grown at 25° C. in microtiter plate, 200 μl per well. […] The cultures were centrifuged and 50 μl aliquots of the supernatant were transferred to microtiter plate containing 2 μl 50 mM 4-methyl umbelliferyl galactoside which was subsequently incubated for 1 h at 37° C. The reaction was stopped by adding 100 μl 0.2 M Na2CO3. Fluorescence was measured using a Fluoroscan Ascent (Labsystems, Finland) at the excitation and emission wavelengths of 365 and 460 nm, respectively. The OD600 of remaining culture was determined and β-galactosidase activity was calculated as nmol 4-methylumbelliferone×OD600^−1×h^−1.
(§2) The EC50 value, the compound concentration activating the receptor to 50%, was calculated from the obtained dose response curves. The compound functioning as cytokinin antagonists should not activate cytokinin signalling pathway. The values shown in Table 2 are means of three replicates and the entire test was repeated at least twice.

Assay [2] has as its target T2, AHK3 (Arabidopsis thaliana, UniProt Q9C5U1).
T2 construct: expressed in transfected cells; host or cells: Escherichia coli KMI001, plasmid pSTV28-AHK3
T2 sequence (Q9C5U1 1-1036): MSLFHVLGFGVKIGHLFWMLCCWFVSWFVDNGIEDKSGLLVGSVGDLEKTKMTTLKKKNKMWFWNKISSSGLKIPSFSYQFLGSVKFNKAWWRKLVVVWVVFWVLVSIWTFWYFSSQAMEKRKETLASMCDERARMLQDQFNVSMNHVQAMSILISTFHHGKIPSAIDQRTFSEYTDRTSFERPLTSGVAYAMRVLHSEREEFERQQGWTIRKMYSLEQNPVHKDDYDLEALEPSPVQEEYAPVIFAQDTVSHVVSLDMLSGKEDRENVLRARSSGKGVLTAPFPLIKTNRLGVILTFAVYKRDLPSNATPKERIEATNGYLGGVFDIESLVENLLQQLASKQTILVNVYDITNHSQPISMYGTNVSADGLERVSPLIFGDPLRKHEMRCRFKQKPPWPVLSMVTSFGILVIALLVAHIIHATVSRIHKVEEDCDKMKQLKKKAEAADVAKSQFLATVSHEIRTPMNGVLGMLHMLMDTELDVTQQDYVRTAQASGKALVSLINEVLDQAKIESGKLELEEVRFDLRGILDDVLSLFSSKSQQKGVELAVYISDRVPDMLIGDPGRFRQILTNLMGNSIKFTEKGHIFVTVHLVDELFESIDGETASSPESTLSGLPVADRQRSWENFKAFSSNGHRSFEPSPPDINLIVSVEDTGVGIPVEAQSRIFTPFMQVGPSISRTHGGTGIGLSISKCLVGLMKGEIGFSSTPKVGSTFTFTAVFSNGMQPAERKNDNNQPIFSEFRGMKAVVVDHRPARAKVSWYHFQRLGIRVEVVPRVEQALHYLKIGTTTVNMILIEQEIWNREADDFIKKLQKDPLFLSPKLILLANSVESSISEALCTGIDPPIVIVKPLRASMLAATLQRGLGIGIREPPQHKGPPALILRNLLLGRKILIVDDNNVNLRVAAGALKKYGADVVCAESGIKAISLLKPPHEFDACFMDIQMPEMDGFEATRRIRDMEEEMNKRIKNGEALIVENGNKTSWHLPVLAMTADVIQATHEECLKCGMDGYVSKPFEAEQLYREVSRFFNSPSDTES
Put plainly: Activation of cytokinin receptor AHK3 in E. coli KMI001 (β-galactosidase reporter). It is filed as cell-based. Conditions: E. coli KMI001 pSTV28-AHK3, 28 h incubation, n.i. means without interaction. As to the method:
as §1, §2

Assay [3] relates to human diploid fibroblasts BJ. The assay is described as follows: Calcein AM cytotoxicity assay, BJ. It counts as cell-based. The conditions noted are these: 72 hours. An excerpt:
(§3) Absence of toxic effects against mammalian (especially human) cell lines in a wide concentration range is one of the requirements on compounds intended for use in agriculture. Because toxic compounds negatively influence metabolic processes in cells, many standard cytotoxicity assays are based on measurement of metabolisation rate of various artificial substrates. Resulting product is then quantified e.g. by means of spectrometry. The assays can be easily modified for use in 96-well plates. For evaluation of cytotoxic effect of the novel substituted 6-(alkylbenzylamino)purine derivatives of this invention, a microtiter assay based on quantification of metabolisation of Calcein AM was used. The assay is widely used in drug screening programs and in chemosensitivity testing. In live cells, Calcein AM is enzymatically hydrolysed and accumulation of resulting calcein is manifested by green fluorescence.
(§4) The cells were maintained in Nunc/Corning 80 cm^2 plastic tissue culture flasks and cultured in cell culture medium (DMEM with 5 g/l glucose, 2 mM glutamine, 100 U/ml penicillin, 100 μg/ml streptomycin, 10% fetal calf serum and sodium bicarbonate).
(§5) The cell suspensions were prepared and diluted according to the particular cell type and the expected target cell density (10^4 cells per well based on cell growth characteristics) and pippetted (80 μl) into 96-well plates. Inoculates were allowed a pre-incubation period of 24 hours at 37° C., 100% humidity and 5% CO2 for stabilisation. Tested compounds were added in total volume of 20 μl of water at time zero. Usually, test compound was evaluated at six 3-fold dilutions. In routine testing, the highest concentration tested was 100 μM, the eventual changes depended on physico-chemical characteristics of the respective compound. All drug concentrations were tested in triplicates. Incubations of cells with the test compounds lasted for 72 hours at 37° C., in 5% CO2 atmosphere and 100% humidity. At the end of incubation period Calcein AM (Molecular Probes) in PBS was added into final concentration of 1 μg/ml. After another 1 hour of incubation fluorescence (FD) was measured with the Labsystem FIA Reader Fluoroscan Ascent (UK). Growth inhibition (GI) was estimated using the following equitation: GI=(mean FDdrug exposed wells−mean FDblank)/(mean FDcontrol wells−mean FDblank)×100%.

Assay [4] concerns erytroid leukemia cell line K-562. The assay is described as follows: Calcein AM cytotoxicity assay, K-562. It is filed as cell-based, human.
Source text: as §3, §4, §5

Assay [5] deals with breast carcinoma cell line MCF-7. The assay is described as follows: Calcein AM cytotoxicity assay, MCF-7. It is filed as cell-based, human.
Source text: as §3, §4, §5

Assay [6] deals with osteosarcoma cell line HOS. The assay is described as follows: Calcein AM cytotoxicity assay, HOS. It is filed as cell-based, human. Conditions: 72 hours.
Source text: as §3, §4, §5

The test system of assay [7] is melanoma cell line G-361. The assay is described as follows: Calcein AM cytotoxicity assay, G-361. It counts as cell-based, human.
Source text: as §3, §4, §5

Assay [8] has as its system Human diploid fibroblasts SNF25. The assay is described as follows: MTT viability assay on human diploid fibroblasts. Conditions: SNF25 passage 19, 72 hours, read-out: IC50 (reduction in mitochondrial activity, MTT). It is filed as cell-based. As to the method:
MTT is a standard colorimetric assay for measurement of proliferation and survival of the cells. Yellow MTT is reduced into violet formazan in metabolically active cells. The amount of formazan is measured by spectrometry. Human diploid fibroblasts SNF25 (passage 19) were seeded in 96-well plate (5000 cells per well). After 6 hours, the cultivation medium (DMEM containing 5 g/l glucose, 2 mM glutamin, 100 U/ml penicillin, 100 μg/ml streptomycin and 10% fetal calf serum) was removed and fresh medium containing a test compound in concentration range of 0-100 μM was added. The concentration was adjusted in cases of compounds with limited solubility. Each concentration was tested in 5 replicates. MTT was added to the cells after 72 hours into final concentration of 0.5 mg/ml. Incubation time was 3 hours. Resulting MTT was disolved in DMSO and absorbance was measured. The cytotoxic effect was estimated as IC=(Awells with compounds/Acontrol wells)×100%.
In general terms: Formazan colour is commonly taken as a measure of viable cells.

Assay [9] concerns cytokinin-dependent tobacco callus Nicotiana tabacum L. cv. Wisconsin 38. Put plainly: Cytokinin-dependent tobacco callus bioassay. It counts as cell-based. Conditions: for activity (%) [10^−6 mol · l^−1 BA = 100%]: at concentration with highest activity, n.a. means inactive; for concentration with highest activity: callus fresh weight after four weeks. As for the experimental part: Stimulatory effect of newly prepared derivatives was tested using cytokinin-dependent tobacco callus. The cytokinin-dependent tobacco callus Nicotiana tabacum L. cv. Wisconsin 38 was maintained at 25° C. in darkness on modified MS medium, containing per 1 liter: 4 μmol of nicotinic acid, 2.4 μmol of pyridoxine hydrochloride, 1.2 μmol of thiamine, 26.6 μmol of glycine, 1.37 μmol of glutamine, 1.8 μmol of myo-inositol, 30 g of sucrose, 8 g of agar, 5.37 μmol of NAA and 0.5 μmol of the compound tested. Subcultivation was carried out every three weeks. Fourteen days before the bioassay, the callus tissue was transferred to the media without 6-benzylaminopurine. The biological activity was determined from the increase of the fresh callus weight after four weeks of cultivation. Five replicates were prepared for each concentration of the compound tested and the entire test was repeated twice. […] The compounds to be tested were dissolved in dimethylsulfoxide (DMSO) and the solution brought up to 10^−3M with distilled water. This stock solution was further diluted with the respective media used for the biotest to a concentration ranging from 10^−8M to 10^−4M.
From the obtained data, the concentration with the highest activity was selected for each compound tested. Relative activity of the compound at this concentration was calculated (Table 3). The activity obtained for 10^−6 M of the control substance 6-benzylaminopurine was postulated as 100% biological activity. […]

The subject of assay [10] is cytokinin receptors CRE1/AHK4 and AHK3. The assay is described as follows: Binding assay with membranes of E. coli expressing cytokinin receptors, competition with 3HtZ. On the set-up: species or system Arabidopsis. The conditions noted are these: negative control, 1000-fold higher concentration than compound 8. As to the method:
Isolation of E. coli membranes and binding assays were carried out as previously described by Romanov et al. (Romanov et al. Analytical Biochemistry 347:129-134, 2005).

T1 sequence (Q9C5U0 whole entry): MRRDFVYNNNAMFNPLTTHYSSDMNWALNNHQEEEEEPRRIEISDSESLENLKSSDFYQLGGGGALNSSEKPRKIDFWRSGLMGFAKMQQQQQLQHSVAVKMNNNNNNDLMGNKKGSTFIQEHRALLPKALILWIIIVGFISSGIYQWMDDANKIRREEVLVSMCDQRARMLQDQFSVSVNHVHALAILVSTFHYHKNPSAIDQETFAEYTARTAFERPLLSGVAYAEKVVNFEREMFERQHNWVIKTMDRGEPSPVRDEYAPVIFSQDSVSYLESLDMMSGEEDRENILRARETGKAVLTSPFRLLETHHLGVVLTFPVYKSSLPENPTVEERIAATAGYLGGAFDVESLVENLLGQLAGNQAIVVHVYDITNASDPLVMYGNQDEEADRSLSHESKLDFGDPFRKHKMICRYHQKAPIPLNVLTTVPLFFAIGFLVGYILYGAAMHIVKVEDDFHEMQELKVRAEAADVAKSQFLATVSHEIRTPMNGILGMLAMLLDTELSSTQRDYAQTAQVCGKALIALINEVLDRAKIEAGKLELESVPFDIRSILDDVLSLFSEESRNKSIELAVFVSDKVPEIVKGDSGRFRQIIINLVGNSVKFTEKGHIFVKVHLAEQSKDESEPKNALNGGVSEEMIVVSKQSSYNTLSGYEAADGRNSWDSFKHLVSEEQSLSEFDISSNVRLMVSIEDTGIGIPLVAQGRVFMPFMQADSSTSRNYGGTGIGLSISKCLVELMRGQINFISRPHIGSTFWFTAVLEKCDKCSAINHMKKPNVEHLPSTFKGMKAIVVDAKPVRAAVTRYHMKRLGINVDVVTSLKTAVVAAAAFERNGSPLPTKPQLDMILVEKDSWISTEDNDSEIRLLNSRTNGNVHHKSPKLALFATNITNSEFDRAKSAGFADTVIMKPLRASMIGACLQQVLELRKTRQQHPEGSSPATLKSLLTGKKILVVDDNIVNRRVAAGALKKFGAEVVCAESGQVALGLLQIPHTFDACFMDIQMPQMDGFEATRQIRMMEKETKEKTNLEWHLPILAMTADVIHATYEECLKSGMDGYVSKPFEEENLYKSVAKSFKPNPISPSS

One may read the GI50 as the concentration at which growth is held to half of that of the control. One may read the pIC50 as −log10 of the IC50, conventionally taken in molar units. Take `C/C(=C\CNc1ncnc2nc[nH]c12)CO` [trans-zeatin]: the figures for the pEC50 in [1] (read-out: EC50 CRE1/AHK4 (activation of cytokinin receptor)) and in assay [2] (read-out: EC50 AHK3 (activation of cytokinin receptor)) were 6.05 and 5.68, respectively. In addition, the concentration for 50% growth inhibition (GI50) in [3] was above 100 µM; in assay [4] (72 hours), above 100 µM; in [5] (72 hours, read-out: GI50 MCF7), above 100 µM; in [6], above 100 µM; in assay [7] (72 hours) it was above 100 µM. For the same molecule, the pIC50 in assay [8] was below 4.00.
As for `Cc1cccc(O)c1CNc1ncnc2nc[nH]c12` [Compound 11, 6-(2-hydroxy-6-methylbenzylamino)purine], the “EC50 CRE1/AHK4 (activation of cytokinin receptor)” value in assay [1] is listed as “n.i”. In assay [2], the “EC50 AHK3 (activation of cytokinin receptor)” value is “n.i”. In addition, in [9], the “activity (%) [10^−6 mol · l^−1 BA = 100%]” value was 23 (±5) % and the “concentration with highest activity” value was 10^−4 mol.l^−1.
The like results for “6-(2-thio-5-methylbenzylamino)purine [Compound 19]” were, in that order, “n.i”, “n.i”, 1.3 (±1) % and 10^−4 mol.l^−1.
As to `CC(C)=CCNc1ncnc2nc[nH]c12` [isopentenyladenine], the GI50 in assay [3] was above 100 µM; in assay [4] (72 hours), above 100 µM; in assay [5] (72 hours, read-out: GI50 MCF7), above 100 µM; in assay [6], above 100 µM; in assay [7] (72 hours) it was above 100 µM. In addition, the pIC50 in assay [8] was below 4.00.
As to `Oc1ccccc1CNc1ncnc2nc[nH]c12` [ortho-topolin], the GI50 in assay [3] is above 100 µM; in [4] (72 hours), above 100 µM; in [5] (72 hours, read-out: GI50 MCF7), above 100 µM; in assay [6] it was above 100 µM; in assay [7] (72 hours), above 100 µM. Moreover, the pIC50 in assay [8] was below 4.00.
Regarding `Nc1ncnc2nc[nH]c12` [adenine], in [10], the “effect on binding of 3HtZ” value was “not effective at all”. Moreover, the GI50 in assay [3] (Homo sapiens, Fibroblast) is above 100 µM; in [4] (Homo sapiens, K562, 72 hours) it was above 100 µM; in [5] (Homo sapiens, MCF7, 72 hours), above 100 µM; in [6] (Homo sapiens), above 100 µM; in assay [7] (Homo sapiens, G-361, 72 hours) it was above 100 µM. The pIC50 in assay [8] (Homo sapiens, Fibroblast) is below 4.00.
With `c1coc(CNc2ncnc3[nH]cnc23)c1` [kinetin], the GI50 in assay [3] (Homo sapiens, Fibroblast) was above 100 µM; in assay [4] (Homo sapiens, K562, 72 hours), above 100 µM; in assay [5] (Homo sapiens, MCF7, 72 hours) it was above 100 µM; in assay [6] (Homo sapiens), above 100 µM; in [7] (Homo sapiens, G-361, 72 hours) it was above 100 µM. Besides, the pIC50 in [8] (Homo sapiens, Fibroblast) was below 4.00.
In the case of `Oc1cccc(CNc2ncnc3nc[nH]c23)c1` [meta-topolin], the GI50 in assay [3] is above 100 µM; in assay [4] (72 hours) it was above 100 µM; in assay [5] (72 hours, read-out: GI50 MCF7), above 100 µM; in [6], above 100 µM; in [7] (72 hours), above 100 µM. Besides, the pIC50 in assay [8] is below 4.00.
